Experimental data published in patent US9192602B2, “Indication of anthra[2,1,c][1,2,5]thiadiazole-6,11-dione compound in alleviating pain” (NATIONAL CENTRAL UNIVERSITY, priority 2014, dated 2015).

How the values were obtained:
CD-1 mice [1] = test: Nociceptive pain: acute pain induced by acid solution, von Frey mechanical hyperalgesia test; assay type: in vivo
Protocol: Anthra[2,1-c][1,2,5]thiadiazole-6,11-dione (NSC745885, B1) was intraplantarly injected into the right hind paws of 8 to 12-week-old CD-1 mice. 5 minutes after the injection, 25 μL of pH 5.0 acid solution was intraplantarly injected into each of the mice. About 60 minutes later, the mice were directly tested with the hypersensitivity to mechanical stimuli using von Frey filaments (Touch-Test North Coast Medical, Inc., Margan Hill, Calif.). The control group was conducted under the same conditions except it was treated with a compound-free saline. […]
(§1) 2.2 μg/kg of the compound was administered to the mice by intraplantar injection about 5 minutes prior to the injection of the acid solution. An hour after the injection of the acid, the hypersensitivity of the mice to mechanical stimuli was measured using von Frey filaments (Touch-Test North Coast Medical, Inc., Margan Hill, Calif.). […] 60 minutes after the mice were administered with the compound, the mechanical hyperalgesia was assessed through the measurement of paw withdrawal frequencies by a sequential series of von Frey filaments of weights 0.6, 1.0, 1.4, 2.0 and 4.0 g applied perpendicularly to the plantar surface of the paw. […] The occurrence of paw withdrawal resulting from the stimulation or removing the stimulation for each trial was quantified as a percentage response frequency for each monofilament. […]

CD-1 mice [2] = test: Neuropathic pain: chronic constriction injury (CCI) of the sciatic nerve, von Frey mechanical hyperalgesia test; assay type: in vivo
Description: The assessment of the effectiveness of the compound for alleviating neuropathic pain used the animal model of chronic constriction injury (CCI) of the sciatic nerve, which was established by Bennett and Xie (1988). After the surgery, the mice developed long-lasting hypersensitivity to mechanical stimuli (chronic mechanical hyperalgesia) even being lightly touched. The mechanical hyperalgesia test was used to evaluate the analgesic effect of the compound.
The mice, after a week following the ligation surgery, were intraplantarly injected with a series of different dosages of the compound, 0.22, 2.2, 22 μg/kg or the mice were injected with 2.2 μg/kg of compound intrathecally, or with 44 μg/kg of the compound intraperitoneally. The hypersensitivity to mechanical stimuli was measured using von Frey filaments at 60 minutes after the injection. The mice injected with saline following surgery were the control group and the other mice injected with gabapentin following surgery were the positive control group.
2.2 μg/kg of the compound was administered to the mice by intraplantar injection about 5 minutes prior to the injection of the acid solution. An hour after the injection of the acid, the hypersensitivity of the mice to mechanical stimuli was measured using von Frey filaments (Touch-Test North Coast Medical, Inc., Margan Hill, Calif.). The mice were placed in transparent plastic chambers (10×8×10 cm) on a metal mesh floor at least 30 minutes per day for 2 days to acclimatize them to the testing room prior to the test. 60 minutes after the mice were administered with the compound, the mechanical hyperalgesia was assessed through the measurement of paw withdrawal frequencies by a sequential series of von Frey filaments of weights 0.6, 1.0, 1.4, 2.0 and 4.0 g applied perpendicularly to the plantar surface of the paw. The paw was briefly stimulated with force sufficient to slightly bend the filaments and a single trial consisted of repeated applications of the von Frey filaments five times, each application lasting for about 5 seconds. The occurrence of paw withdrawal resulting from the stimulation or removing the stimulation for each trial was quantified as a percentage response frequency for each monofilament. When the frequency was more than 50%, the weight of the von Frey filaments was determined as the paw withdrawal threshold (PWT). To make sure all the mice were under normal physical conditions, all housing conditions complied with general feeding standards, and the temperature and illumination were maintained in a suitable range.
According to the method described by Bennett and Xie, Pain, 1988, 33, 87-107, 8 to 12-week-old CD-1 mice were subjected to chronic constriction injury (CCI) of the sciatic nerve, which is an animal model inducing chronic neuropathic pain. To anesthetize the mice, each of the mice was injected with 240 mg/kg of 2,2,2-tribromoethanol (Avertin). Then three ligatures were loosely tied around the sciatic nerve of the mouse with chromic gut. The surgical procedure for the Sham (non ligation) control group was identical to that mentioned above except that the sciatic nerves were not ligated. A week after the mice in the experimental (CCI+compound) group had chronic constriction injury of sciatic nerves, the compound was intraplantarly, intrathecally, or intraperitoneally injected into the mice. 60 minutes after the injection, the mice were directly subjected to the hypersensitivity test to mechanical stimuli. The mice under the surgery treated with saline were the CCI group; the mice treated with gabapentin were the positive control (CCI+Gabapentin) group.

mice = test: Inflammatory pain: chronic inflammatory pain induced by Complete Freund's Adjuvant (CFA), von Frey test; assay type: in vivo; conditions: 60 min after CFA
Protocol: When 50% CFA was intraplantarly injected into the mouse, paw edema and chronic mechanical hyperalgesia were developed in the tested mice. Different dosages of the anthra[2,1-c][1,2,5]thiadiazole-6,11-dione compound, 0.22, 2.2, 22 μg/kg were intraplantarly injected into mouse hindpaw, followed by 50% CFA injection. At 60 minutes after the CFA injection, the pain sensitivity of the mice was measured by mechanical stimulation using von Frey filaments.
as §1, with “monofilament. When the frequency was more than 50%, the weight of the von Frey filaments was determined as the paw withdrawal threshold (PWT).” for “monofilament.”

human cancer cell lines = conditions: NCI panel (leukemia, non-small cell lung cancer, colon cancer, etc.); Taiwan Patent application 097112087; cited from earlier work

Compound	paw withdrawal threshold (PWT) (CD-1 mice [1]; 2.2 μg/kg intraplantar, 5 min before 25 μL pH 5.0 acid solution, measured about 60 min later, acid only 1.1±0.065 g, control 4.0±0 g) [g]	paw withdrawal threshold (PWT) (CD-1 mice [1]; sole injection of the compound without the acid solution, did not induce pain) [g]	development of tolerance to the compound (CD-1 mice [2]; 2.2 μg/kg intraplantar once every week for three weeks)	paw withdrawal threshold (PWT) (CD-1 mice [2]; 2.2 μg/kg intraplantar once every week for three weeks, first week) [g]	paw withdrawal threshold (PWT) (CD-1 mice [2]; 2.2 μg/kg intraplantar once every week for three weeks, second week) [g]	paw withdrawal threshold (PWT) (CD-1 mice [2]; 2.2 μg/kg intraplantar once every week for three weeks, third week) [g]	paw withdrawal threshold (PWT) (CD-1 mice [2]; 2.2 μg/kg intraplantar, one week after CCI surgery, 60 min after injection, CCI only 0.9±0.23 g, control 3.6±0.29 g) [g]	paw withdrawal threshold (PWT) (CD-1 mice [2]; 2.2 μg/kg intrathecal, one week after CCI surgery, 60 min after injection) [g]	paw withdrawal threshold (PWT) (CD-1 mice [2]; 22 μg/kg intraplantar, one week after CCI surgery, 60 min after injection) [g]	inhibition of mechanical hyperalgesia induced by CCI of the sciatic nerve (CD-1 mice [2]; 44 μg/kg intraperitoneal)	paw withdrawal threshold (PWT) (mice; 2.2 μg/kg intraplantar 5 min before 50% CFA, CFA only 0.4±0.033 g, control 3.6±0.202 g) [g]	paw withdrawal threshold (PWT) (mice; 22 μg/kg intraplantar 5 min before 50% CFA) [g]	anti-proliferative activity against human cancer cell lines (human cancer cell lines)	dosage required to inhibit chronic mechanical hyperalgesia caused by CCI (CD-1 mice [2]; intraperitoneal injection)
O=C1c2ccccc2C(=O)c2c1ccc1nsnc21 [B1, Anthra[2,1-c][1,2,5]thiadiazole-6,11-dione]	3.3 ± 0.67	4.0 ± 0	no obvious indication that the mice developed tolerance	2.5 ± 0.8	2.0 ± 0	2.7 ± 0.67	2.5 ± 0.8	4.0	4.0 ± 0.0	completely inhibited mechanical hyperalgesia	1.6 ± 0.15	3.0 ± 0.45	shows anti-proliferative activity against human cancer cell lines	–
NCC1(CC(=O)O)CCCCC1 [gabapentin, reference compound]	–	–	–	–	–	–	–	–	–	–	–	–	–	at least 15,000 μg/kg
